Data as given in patent US4698352A, “4-oxo-1,4-dihydronicotinic acid derivatives, salts thereof, and antibacterial agents containing the same” (Toyama Chemical Co., Ltd., priority 1982, dated 1987).
In brackets after ≈: the same amount, converted by molar mass. Like-named read-outs stand apart in the source and are kept apart here.

Columns and labels:
Test in all cases: Antibacterial activity (MIC), agar dilution
Format in all cases: cell-based
Kl. pneumoniae Y-4* = settings: Klebsiella pneumoniae, 20 h, Kl. pneumoniae Y-4, penicillinase-producing; 10^6 cells per ml; read-out: MIC
Source text: (§1) The amount of bacteria inoculated was 10^4 cells per plate (10^6 cells per ml).
(§2) * Penicillinase-producing bacteria

E. coli TK-3* = settings: Escherichia coli, 20 h
Source text: as §1, §2

Ps. aeruginosa GN3379* = settings: Pseudomonas aeruginosa, 20 h; Ps. aeruginosa GN3379, penicillinase-producing; 10^6 cells per ml; read-out: MIC
Source text: as §1, §2

St. aureus F-137* = settings: Staphylococcus aureus, 20 h
Source text: as §1, §2

Pro. vulgaris GN76** = settings: Proteus vulgaris
Source text: as §1
(§3) ** Cephalospolinase-producing bacteria

E. coli GN5482** = settings: Escherichia coli, 20 h; E. coli GN5482, cephalospolinase-producing; 10^6 cells per ml; read-out: MIC
Source text: as §1, §3

Ps. aeruginosa GN918** = settings: Ps. aeruginosa GN918, cephalospolinase-producing, 10^6 cells per ml
Source text: as §1, §3

Kl. pneumoniae Y-50 = settings: Klebsiella pneumoniae, Y50, 20 h, 10^6 cells per ml, 37° C., read-out: MIC
Source text: as §1

Ps. aeruginosa IFO3445 = settings: Pseudomonas aeruginosa; Ps. aeruginosa IFO3445; 10^6 cells per ml; 37° C., 20 hours; read-out: MIC
Source text: as §1

Pro. mirabilis T-111 = settings: Proteus mirabilis, 37° C.
Source text: as §1

E. coli NIHJ JC-2 = settings: Escherichia coli, NIHJJC2, 20 h
Source text: as §1

Aci. antitratus A-6 = settings: 20 h, Aci. antitratus A-6; 10^6 cells per ml; 37° C., 20 hours; read-out: MIC
Source text: as §1

Ps. aeruginosa S-68 = settings: Pseudomonas aeruginosa
Source text: as §1

Pro. vulgaris GN3027 = settings: Proteus vulgaris, GN3027, 20 h, Pro. vulgaris GN3027; 10^6 cells per ml; 37° C., 20 hours; read-out: MIC
Source text: as §1

Ent. cloacae IID977 = settings: Enterobacter cloacae, IID977, 20 h
Source text: as §1

St. aureus FDA209P = settings: Staphylococcus aureus, FDA209P, 20 h
Source text: as §1

Kl. pneumoniae Y-41 = settings: Klebsiella pneumoniae, Y41, 10^6 cells per ml, 37° C., 20 hours, read-out: MIC
Source text: as §1

Pro. morganii T-216 = settings: Morganella morganii, 37° C.
Source text: as §1

E. coli TK-111 = settings: Escherichia coli, TK111, 20 h, E. coli TK-111; 10^6 cells per ml; 37° C., 20 hours; read-out: MIC
Source text: as §1

[1] = E. coli TK-3, penicillinase-producing, 10^6 cells per ml, read-out: MIC
[2] = St. aureus F-137, penicillinase-producing, 10^6 cells per ml, read-out: MIC
[3] = 20 h, Pro. vulgaris GN76, cephalospolinase-producing, 10^6 cells per ml, read-out: MIC
[4] = E. coli NIHJ JC-2, 10^6 cells per ml, 37° C., 20 hours, read-out: MIC
[5] = S68, Ps. aeruginosa S-68, 10^6 cells per ml, 37° C., 20 hours, read-out: MIC
[6] = Ent. cloacae IID977, 10^6 cells per ml, 37° C., 20 hours, read-out: MIC
[7] = St. aureus FDA209P, 10^6 cells per ml, 37° C., 20 hours, read-out: MIC
[8] = Pseudomonas aeruginosa, 20 h, read-out: MIC
[9] = T111, 10^6 cells per ml, 20 hours, read-out: MIC

Row | Structure (SMILES) | MIC (Kl. pneumoniae Y-4*) | MIC (E. coli TK-3*; [1]) | MIC (Ps. aeruginosa GN3379*) | MIC (St. aureus F-137*; [2]) | MIC (Pro. vulgaris GN76**; [3]) | MIC (E. coli GN5482**) | MIC (Kl. pneumoniae Y-50) | MIC (Ps. aeruginosa IFO3445) | MIC (Pro. mirabilis T-111; T111, 20 h, 10^6 cells per ml) | MIC (E. coli NIHJ JC-2; [4]) | MIC (Aci. antitratus A-6) | MIC (Ps. aeruginosa S-68; [5]) | MIC (Pro. vulgaris GN3027) | MIC (Ent. cloacae IID977; [6]) | MIC (St. aureus FDA209P; [7]) | MIC (Kl. pneumoniae Y-41) | MIC (Pro. morganii T-216; T216, 20 h, 10^6 cells per ml) | MIC (E. coli TK-111) | MIC (Ps. aeruginosa GN918**; [8]) | MIC (Pro. mirabilis T-111; [9]) | also measured
1 | Cc1cc(O)ccc1-n1cc(C(=O)O)c(=O)cc1C1CCCC1 | 6.25 µg/mL (≈ 19.9 µM) | 1.56 µg/mL (≈ 4.98 µM) | 25 µg/mL (≈ 79.8 µM) | 0.39 µg/mL (≈ 1.24 µM) | 0.78 µg/mL (≈ 2.49 µM) | 0.2 µg/mL (≈ 0.638 µM) | 0.78 µg/mL (≈ 2.49 µM) | 12.5 µg/mL (≈ 39.9 µM) | 3.13 µg/mL (≈ 9.99 µM) | 0.78 µg/mL (≈ 2.49 µM) | 0.78 µg/mL (≈ 2.49 µM) | 12.5 µg/mL (≈ 39.9 µM) | ≤ 0.05 µg/mL | 1.56 µg/mL (≈ 4.98 µM) | 0.78 µg/mL (≈ 2.49 µM) | 3.13 µg/mL (≈ 9.99 µM) | 3.13 µg/mL (≈ 9.99 µM) | 0.39 µg/mL (≈ 1.24 µM) |  |  | MIC (Ps. aeruginosa GN918**; Pseudomonas aeruginosa, GN918, 20 h): 3.13 µg/mL (≈ 9.99 µM)
2 | O=C(O)c1cn(-c2ccc(F)cc2)c(-c2ccc(N=Cc3ccc([N+](=O)[O-])o3)cc2)cc1=O | 25 µg/mL (≈ 55.9 µM) | 3.13 µg/mL (≈ 7 µM) | 50 µg/mL (≈ 112 µM) |  |  | 0.39 µg/mL (≈ 0.872 µM) | 1.56 µg/mL (≈ 3.49 µM) | 25 µg/mL (≈ 55.9 µM) |  |  | 3.13 µg/mL (≈ 7 µM) | 25 µg/mL (≈ 55.9 µM) | 0.39 µg/mL (≈ 0.872 µM) |  |  | 6.25 µg/mL (≈ 14 µM) |  | 0.78 µg/mL (≈ 1.74 µM) | 25 µg/mL (≈ 55.9 µM) | 12.5 µg/mL (≈ 27.9 µM) | MIC (St. aureus F-137*): 6.25 µg/mL (≈ 14 µM); MIC (Pro. vulgaris GN76**; GN76, 20 h): 1.56 µg/mL (≈ 3.49 µM); MIC (E. coli NIHJ JC-2): 1.56 µg/mL (≈ 3.49 µM); MIC (Ent. cloacae IID977): 6.25 µg/mL (≈ 14 µM); MIC (St. aureus FDA209P): 6.25 µg/mL (≈ 14 µM); MIC (Pro. morganii T-216; T216, 10^6 cells per ml, 20 hours, read-out: MIC): 3.13 µg/mL (≈ 7 µM)
3 | O=C(O)c1cn(-c2ccc(F)cc2)c(C=Cc2ccncc2)cc1=O | 6.25 µg/mL (≈ 18.6 µM) | 1.56 µg/mL (≈ 4.64 µM) | 25 µg/mL (≈ 74.3 µM) | 12.5 µg/mL (≈ 37.2 µM) | 0.78 µg/mL (≈ 2.32 µM) | 0.2 µg/mL (≈ 0.595 µM) | 0.78 µg/mL (≈ 2.32 µM) | 50 µg/mL (≈ 149 µM) |  | 12.5 µg/mL (≈ 37.2 µM) | 12.5 µg/mL (≈ 37.2 µM) | 12.5 µg/mL (≈ 37.2 µM) | 0.2 µg/mL (≈ 0.595 µM) | 3.13 µg/mL (≈ 9.31 µM) | 12.5 µg/mL (≈ 37.2 µM) | 6.25 µg/mL (≈ 18.6 µM) | 6.25 µg/mL (≈ 18.6 µM) | 0.39 µg/mL (≈ 1.16 µM) | 25 µg/mL (≈ 74.3 µM) | 12.5 µg/mL (≈ 37.2 µM) | 
4 | Nc1ccc(-c2cc(=O)c(C(=O)O)cn2-c2ccc(O)cc2)cc1 | 12.5 µg/mL (≈ 38.8 µM) |  | 25 µg/mL (≈ 77.6 µM) | 6.25 µg/mL (≈ 19.4 µM) | 1.56 µg/mL (≈ 4.84 µM) | 0.1 µg/mL (≈ 0.31 µM) | 3.13 µg/mL (≈ 9.71 µM) | 25 µg/mL (≈ 77.6 µM) |  |  | 25 µg/mL (≈ 77.6 µM) | 25 µg/mL (≈ 77.6 µM) | 0.39 µg/mL (≈ 1.21 µM) |  |  | 12.5 µg/mL (≈ 38.8 µM) | 3.13 µg/mL (≈ 9.71 µM) | 0.78 µg/mL (≈ 2.42 µM) | 25 µg/mL (≈ 77.6 µM) | 25 µg/mL (≈ 77.6 µM) | MIC (E. coli TK-3*): 3.13 µg/mL (≈ 9.71 µM); MIC (E. coli NIHJ JC-2): 3.13 µg/mL (≈ 9.71 µM); MIC (Ent. cloacae IID977): 12.5 µg/mL (≈ 38.8 µM); MIC (St. aureus FDA209P): 3.13 µg/mL (≈ 9.71 µM)
5 | Cc1cc(O)ccc1-n1cc(C(=O)O)c(=O)cc1C1CCCCC1 [drawing 12] | 12.5 µg/mL (≈ 38.2 µM) | 3.13 µg/mL (≈ 9.56 µM) | > 100 µg/mL | 0.78 µg/mL (≈ 2.38 µM) | 3.13 µg/mL (≈ 9.56 µM) | 0.1 µg/mL (≈ 0.305 µM) | 1.56 µg/mL (≈ 4.77 µM) | 50 µg/mL (≈ 153 µM) | 12.5 µg/mL (≈ 38.2 µM) |  | 0.78 µg/mL (≈ 2.38 µM) | 50 µg/mL (≈ 153 µM) | 0.2 µg/mL (≈ 0.611 µM) | 3.13 µg/mL (≈ 9.56 µM) | 0.78 µg/mL (≈ 2.38 µM) | 6.25 µg/mL (≈ 19.1 µM) | 6.25 µg/mL (≈ 19.1 µM) | 0.78 µg/mL (≈ 2.38 µM) | 3.13 µg/mL (≈ 9.56 µM) |  | MIC (E. coli NIHJ JC-2): 1.56 µg/mL (≈ 4.77 µM)
6 | CC(=O)Oc1ccc(-n2cc(C(=O)OCCN(C)C)c(=O)cc2-c2ccc(N(C)C)cc2)cc1 [drawing 37] | 6.25 µg/mL (≈ 13.5 µM) | 1.56 µg/mL (≈ 3.37 µM) | 12.5 µg/mL (≈ 27 µM) | 0.39 µg/mL (≈ 0.841 µM) | 1.56 µg/mL (≈ 3.37 µM) | ≤ 0.05 µg/mL | 0.78 µg/mL (≈ 1.68 µM) | 12.5 µg/mL (≈ 27 µM) | 6.25 µg/mL (≈ 13.5 µM) | 0.39 µg/mL (≈ 0.841 µM) | 0.39 µg/mL (≈ 0.841 µM) |  | 0.39 µg/mL (≈ 0.841 µM) | 1.56 µg/mL (≈ 3.37 µM) | 0.39 µg/mL (≈ 0.841 µM) | 3.13 µg/mL (≈ 6.75 µM) | 3.13 µg/mL (≈ 6.75 µM) | 0.2 µg/mL (≈ 0.431 µM) |  |  | MIC (Ps. aeruginosa GN918**): 3.13 µg/mL (≈ 6.75 µM); MIC (Ps. aeruginosa S-68; S68, 20 h): 6.25 µg/mL (≈ 13.5 µM)
